Reference: PubChem BioAssay (NCI)
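Cultured in 96-well plates, cells were exposed to test compound for 48 hours across five concentrations. At the TGI there is no net growth.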

Assays:
Test in all cases: inhibition of tumour cell growth, NCI panel, 48 h
MALME-3M melanoma = tested on: MALME-3M melanoma
SF-295 CNS = tested on: SF-295 CNS
CCRF-CEM leukemia = tested on: CCRF-CEM leukemia
HOP-62 NSCLC = tested on: HOP-62 NSCLC
MDA-MB-435 = tested on: MDA-MB-435
SK-MEL-2 melanoma = tested on: SK-MEL-2 melanoma
PC-3 prostate = tested on: PC-3 prostate
NCI-H23 lung = tested on: NCI-H23 lung
ACHN renal = tested on: ACHN renal
MDA-N = tested on: MDA-N
SF-268 CNS = tested on: SF-268 CNS
U251 CNS = tested on: U251 CNS
786-0 renal = tested on: 786-0 renal
EKVX NSCLC = tested on: EKVX NSCLC
MCF7 breast = tested on: MCF7 breast
IGROV1 ovarian = tested on: IGROV1 ovarian
M14 melanoma = tested on: M14 melanoma
HCT-15 colon = tested on: HCT-15 colon
MOLT-4 leukemia = tested on: MOLT-4 leukemia
RXF 393 renal = tested on: RXF 393 renal
HCC-2998 colon = tested on: HCC-2998 colon
OVCAR-8 ovarian = tested on: OVCAR-8 ovarian
UACC-257 melanoma = tested on: UACC-257 melanoma
OVCAR-3 ovarian = tested on: OVCAR-3 ovarian
HCT-116 colon = tested on: HCT-116 colon
UACC-62 melanoma = tested on: UACC-62 melanoma
NCI-H226 lung = tested on: NCI-H226 lung
BT-549 breast = tested on: BT-549 breast
SN12C renal = tested on: SN12C renal
LOX IMVI melanoma = tested on: LOX IMVI melanoma
OVCAR-5 ovarian = tested on: OVCAR-5 ovarian
NCI-H460 lung = tested on: NCI-H460 lung
SR leukemia = tested on: SR leukemia
RPMI-8226 leukemia = tested on: RPMI-8226 leukemia
KM12 colon = tested on: KM12 colon
K-562 leukemia = tested on: K-562 leukemia
SNB-19 CNS = tested on: SNB-19 CNS
COLO 205 colon = tested on: COLO 205 colon
SK-MEL-5 melanoma = tested on: SK-MEL-5 melanoma
CAKI-1 renal = tested on: CAKI-1 renal
SK-OV-3 ovarian = tested on: SK-OV-3 ovarian
T-47D breast = tested on: T-47D breast
HL-60(TB) leukemia = tested on: HL-60(TB) leukemia
A549 NSCLC = tested on: A549 NSCLC
UO-31 renal = tested on: UO-31 renal
TK-10 renal = tested on: TK-10 renal
OVCAR-4 ovarian = tested on: OVCAR-4 ovarian
SK-MEL-28 melanoma = tested on: SK-MEL-28 melanoma
SW-620 colon = tested on: SW-620 colon
DU-145 prostate = tested on: DU-145 prostate
HOP-92 NSCLC = tested on: HOP-92 NSCLC
NCI/ADR-RES ovarian = tested on: NCI/ADR-RES ovarian
NCI-H522 lung = tested on: NCI-H522 lung
HT29 colon = tested on: HT29 colon

## C[n+]1ccc2/c(=C\C#N)c3ccccc3n21
MALME-3M melanoma
  TGI: 44.6 µM
SF-295 CNS
  TGI: > 100 µM
CCRF-CEM leukemia
  TGI: 51.4 µM
HOP-62 NSCLC
  TGI: > 100 µM
MDA-MB-435
  TGI: 63 µM
SK-MEL-2 melanoma
  TGI: 89.9 µM
PC-3 prostate
  TGI: > 100 µM
NCI-H23 lung
  TGI: 40.7 µM
ACHN renal
  TGI: > 100 µM
MDA-N
  TGI: > 100 µM
SF-268 CNS
  TGI: > 100 µM
U251 CNS
  TGI: 72.8 µM
786-0 renal
  TGI: > 100 µM
EKVX NSCLC
  TGI: 85.2 µM
MCF7 breast
  TGI: 65 µM
IGROV1 ovarian
  TGI: 78.3 µM
M14 melanoma
  TGI: > 100 µM
HCT-15 colon
  TGI: > 100 µM
MOLT-4 leukemia
  TGI: > 100 µM
RXF 393 renal
  TGI: > 100 µM
HCC-2998 colon
  TGI: 50.6 µM
OVCAR-8 ovarian
  TGI: > 100 µM
UACC-257 melanoma
  TGI: 13.9 µM
OVCAR-3 ovarian
  TGI: 34.2 µM
HCT-116 colon
  TGI: > 100 µM
UACC-62 melanoma
  TGI: > 100 µM
NCI-H226 lung
  TGI: > 100 µM
BT-549 breast
  TGI: 52.8 µM
SN12C renal
  TGI: > 100 µM
LOX IMVI melanoma
  TGI: 40.4 µM
OVCAR-5 ovarian
  TGI: > 100 µM
NCI-H460 lung
  TGI: > 100 µM
SR leukemia
  TGI: 56.5 µM
RPMI-8226 leukemia
  TGI: 31.3 µM
KM12 colon
  TGI: 45.1 µM
K-562 leukemia
  TGI: > 100 µM
SNB-19 CNS
  TGI: 30.1 µM
COLO 205 colon
  TGI: 45.4 µM
SK-MEL-5 melanoma
  TGI: 35.6 µM
CAKI-1 renal
  TGI: > 100 µM
SK-OV-3 ovarian
  TGI: 83 µM
T-47D breast
  TGI: 32.7 µM
HL-60(TB) leukemia
  TGI: 65.6 µM
A549 NSCLC
  TGI: 52.7 µM
UO-31 renal
  TGI: > 100 µM
TK-10 renal
  TGI: 63.9 µM
OVCAR-4 ovarian
  TGI: 72.9 µM
SK-MEL-28 melanoma
  TGI: 53.5 µM
SW-620 colon
  TGI: > 100 µM
DU-145 prostate
  TGI: 46.4 µM
HOP-92 NSCLC
  TGI: 63.2 µM
NCI/ADR-RES ovarian
  TGI: > 100 µM
NCI-H522 lung
  TGI: 70.8 µM
HT29 colon
  TGI: 72.1 µM
